Reference: ChEMBL document CHEMBL1152981 (J Med Chem, 2009)
Active and inactive are the calls of the source. The rule behind the calls is not given here.

What was measured:
[1] = target: Glutamate NMDA receptor; assay: Displacement of [3H]glycine from strychnine-insensitive glycine recognition site of NMDA receptor in rat brain cortex membrane; format: cell membranes
[2] = target: Glutamate NMDA receptor; assay: Displacement of [3H]CGP39653 from glutamate recognition site of NMDA receptor in rat brain cortex membrane in presence of glycine antagonist 5,7-dichlorokynurenic acid; format: cell membranes
[3] = target: T1, Glutamate NMDA receptor (Rattus norvegicus) (UniProt P35439+Q00959+Q00960+Q00961+Q62645+Q8VHN2+Q9R1M7); assay: Displacement of [3H]MK-801 from ion channel site of NMDA receptor in rat brain cortex membrane; format: cell membranes
[4] = target: T1, Glutamate NMDA receptor (Rattus norvegicus); assay: Displacement of [3H]spermidine from polyamine site of NMDA receptor in rat brain cortex membrane; format: cell membranes
[5] = Partial agonist activity at glycine site of NMDA receptor in rat brain cortex membrane assessed as potentiation of [3H]Mk-801 binding by liquid scintillation counting; format: cell membranes
[6] = target: T1, Glutamate NMDA receptor (Rattus norvegicus); assay: Displacement of [3H]glycine from strychnine-insensitive glycine recognition site of NMDA receptor in rat brain cortex membrane at 3 uM; format: cell membranes
[7] = target: T1, Glutamate NMDA receptor (Rattus norvegicus); assay: Antagonist activity at glycine site of NMDA receptor in rat brain cortex membrane assessed as inhibition of [3H]Mk-801 binding by liquid scintillation counting in presence of antagonist 5,7-dichlorokynurenic acid

| SMILES | pKi [1] | pKi [2] | further results |
| --- | --- | --- | --- |
| CC(N)(CO)C(=O)O (stereo not given) | < 4 | – | – |
| CCCCCC/C=C/[C@H](N)C(=O)O | 5.9 | – | – |
| CC[C@@H](N)C(=O)O | < 4 | – | – |
| N[C@@H](/C=C/CCO)C(=O)O | 6.6 | – | – |
| C=CC[C@@H](N)C(=O)O | < 4 | – | – |
| NC(C(=O)O)C1CC1 (stereo not given) | < 4 | – | – |
| NC1(C(=O)O)CCCCC1 | < 3 | – | – |
| CCC/C=C/[C@H](N)C(=O)O | 5.4 | – | – |
| CC(O)[C@@H](N)C(=O)O (stereo not given in full) | – | – | Activity [6]: inactive |
| COC[C@@H](N)C(=O)O | – | – | Activity [6]: inactive |
| CCNC(=O)NCC(N)C(=O)O (racemic) | < 4 | – | – |
| COC(=O)NCC(N)C(=O)O (racemic) | 4.1 | – | – |
| NC(CNC(=O)c1cc2c(-c3ccc(Cl)cc3Cl)cccc2s1)C(=O)O (racemic) | 4.7 | < 4.5 | Activity [3]: inactive; Activity [4]: inactive; pA2 [5]: 5.1 |
| CCCc1ccccc1-c1cccc2[nH]c(C(=O)NCC(N)C(=O)O)cc12 (racemic) | 7.3 | 5.4 | pEC50 [5]: 7.6 |
| CCc1ccccc1-c1cccc2sc(C(=O)NCC(N)C(=O)O)cc12 (racemic) | 6.2 | 3.9 | Activity [3]: inactive; Activity [4]: inactive |
| Cn1c(C(=O)NCC(N)C(=O)O)cc2ccccc21 (racemic) | 4.9 | – | – |
| NC(CNC(=O)c1ccc2ccccc2c1)C(=O)O (racemic) | 5.9 | < 4 | Activity [3]: inactive; Activity [4]: inactive |
| NC(CNC(=O)C1Cc2ccccc2C1)C(=O)O (racemic) | < 4 | – | – |
| CCc1ccccc1-c1cccc2cc(C(=O)NCC(N)C(=O)O)ccc12 (racemic) | 5.7 | 4.5 | – |
| CCc1ccccc1-c1ccc(Cl)c2[nH]c(C(=O)NCC(N)C(=O)O)cc12 (racemic) | 6.9 | < 4.5 | – |
| NC(CNC(=O)c1ccccn1)C(=O)O (racemic) | 4.4 | – | – |
| CCc1ccccc1-c1cccc2c1cc(C(=O)NCC(N)C(=O)O)n2C (racemic) | 3.9 | – | – |
| NC(CNC(=O)c1ccc2ccccc2n1)C(=O)O (racemic) | 5.6 | < 4 | – |
| NC(CNC(=O)c1cc2c(-c3ccccc3Cc3ccccc3)cccc2[nH]1)C(=O)O (racemic) | 6 | < 5.5 | pEC50 [5]: 6.5 |
| C[C@@H]1CN(O)C(=O)[C@@H]1N (relative stereo) | – | – | Activity [7]: Active |
| NC1(C(=O)O)CCC1 [1-AMINOCYCLOBUTANE CARBOXYLIC ACID] | 4.8 | – | – |
| NC1(C(=O)O)CC1 [1-Aminocyclopropane carboxylic acid] | 6.8 | – | – |
| NC1(C(=O)O)CCCC1 [CYCLOLEUCINE] | 2.7 | – | – |
| C[C@@H](N)C(=O)O [D-ALANINE] | 6.2 | – | – |

Continued, in another order:

| pKi [1] | pKi [2] | SMILES | further results |
| --- | --- | --- | --- |
| 7.6 | 5.4 | CCc1ccccc1-c1cccc2[nH]c(C(=O)NC[C@@H](N)C(=O)O)cc12 | Activity [3]: inactive; Activity [4]: inactive; pEC50 [5]: 7.7 |
| 5.3 | 3.8 | N[C@H](CNC(=O)c1cc2ccccc2[nH]1)C(=O)O | Activity [3]: inactive; Activity [4]: inactive; pEC50 [5]: 5.3 |
| < 4 | – | N[C@@H](CNC(=O)c1cc2ccccc2[nH]1)C(=O)O | – |
| 7 | 4.6 | N[C@H](CNC(=O)c1cc2c(Br)cccc2[nH]1)C(=O)O | Activity [3]: inactive; Activity [4]: inactive; pEC50 [5]: 6.6 |
| 4.9 | – | NC(CNC(=O)c1ccco1)C(=O)O (racemic) | Activity [3]: inactive; Activity [4]: inactive; pEC50 [5]: 5.1 |
| 5.9 | < 4 | N#Cc1cccc2sc(C(=O)NCC(N)C(=O)O)cc12 (racemic) | Activity [3]: inactive; Activity [4]: inactive; pA2 [5]: 5.5 |
| 4.9 | – | NC(CNC(=O)c1cc2ccc(Cl)cc2[nH]1)C(=O)O (racemic) | – |
| 5.5 | – | NC(CNC(=O)c1cc2cccc(Cl)c2[nH]1)C(=O)O (racemic) | – |
| 5.4 | – | NC(CNC(=O)c1c[nH]c2ccccc12)C(=O)O (racemic) | Activity [3]: inactive; Activity [4]: inactive |
| 6.5 | < 4 | NC(CNC(=O)c1cc2c(Cl)cccc2s1)C(=O)O (racemic) | – |
| 5.9 | 4.1 | COc1cccc2[nH]c(C(=O)NCC(N)C(=O)O)cc12 (racemic) | – |
| 6.8 | 5.3 | CCCc1c(C(=O)NCC(N)C(=O)O)[nH]c2cccc(-c3ccccc3CC)c12 (racemic) | – |
| 4.7 | – | NC(CNC(=O)c1cc2cc(Cl)ccc2[nH]1)C(=O)O (racemic) | – |
| 6.8 | 4 | NC(CNC(=O)c1cc2c(Cl)ccc(Cl)c2[nH]1)C(=O)O (racemic) | pA2 [5]: 6.2 |
| 6.8 | 4.7 | NC(CNC(=O)c1cc2c(Br)cccc2[nH]1)C(=O)O (racemic) | – |
| 5.5 | < 4 | NC(CNC(=O)C1=Cc2ccccc2C1)C(=O)O (racemic) | – |
| < 4 | – | NC(CNC(=O)Cc1c[nH]c2ccccc12)C(=O)O (racemic) | – |
| 5.6 | 4.7 | NC(CNC(=O)c1cc2c(-c3ccccc3)cccc2[nH]1)C(=O)O (racemic) | – |

| pKi [1] | pKi [2] | SMILES | further results |
| --- | --- | --- | --- |
| 5 | – | Cn1c(C(=O)NCC(N)C(=O)O)cc2c(Br)cccc21 (racemic) | – |
| 6.4 | < 4 | NC(CNC(=O)c1cc2c(Br)cccc2s1)C(=O)O (racemic) | Activity [3]: inactive; Activity [4]: inactive |
| 4.9 | – | NC(CNC(=O)c1ccc[nH]1)C(=O)O (racemic) | Activity [3]: inactive; Activity [4]: inactive; pEC50 [5]: 5 |
| 4.3 | < 4 | NC(CNC(=O)Cc1c[nH]c2cccc(Br)c12)C(=O)O (racemic) | – |
| 6 | 4.1 | NC(CNC(=O)c1cc2c(Cl)cccc2[nH]1)C(=O)O (racemic) | – |
| 6.5 | 5.2 | Cc1ccccc1-c1cccc2[nH]c(C(=O)NCC(N)C(=O)O)cc12 (racemic) | pEC50 [5]: 6.9 |
| 5.6 | 4.3 | COc1ccccc1-c1cccc2[nH]c(C(=O)NCC(N)C(=O)O)cc12 (racemic) | – |
| 5.2 | < 4 | NC(CNC(=O)c1cc2ccccc2o1)C(=O)O (racemic) | – |
| 6.6 | 4.3 | NC(CNC(=O)c1ccc2c(Br)cccc2c1)C(=O)O (racemic) | – |
| 7.3 | 5.6 | CC(C)c1ccccc1-c1cccc2[nH]c(C(=O)NCC(N)C(=O)O)cc12 (racemic) | – |
| 5.8 | 4.1 | CN(C)c1ccccc1-c1cccc2[nH]c(C(=O)NCC(N)C(=O)O)cc12 (racemic) | pEC50 [5]: 6.5 |
| 5.9 | < 4 | NC(CNC(=O)c1cccc2ccccc12)C(=O)O (racemic) | – |
| 6.3 | 3.8 | CCCc1c(C(=O)NCC(N)C(=O)O)[nH]c2ccccc12 (racemic) | Activity [3]: inactive; Activity [4]: inactive; pA2 [5]: 5.7 |
| 5.5 | – | Cc1c(C(=O)NCC(N)C(=O)O)[nH]c2ccccc12 (racemic) | – |
| 6.5 | 4.2 | CCCc1c(C(=O)NCC(N)C(=O)O)[nH]c2cccc(Br)c12 (racemic) | pA2 [5]: 6 |
| 7.5 | 4.9 | CCc1ccccc1-c1cccc2[nH]c(C(=O)NCC(N)C(=O)O)cc12 (racemic) | – |
| 6.1 | 4.9 | NC(CNC(=O)c1[nH]c2cccc(Br)c2c1[N+](=O)[O-])C(=O)O (racemic) | – |
